From ChEMBL document CHEMBL4138123, “Design, synthesis and biological evaluation of novel pyrazolochalcones as potential modulators of PI3K/Akt/mTOR pathway and inducers of apoptosis in breast cancer cells” (Eur J Med Chem, 2017)

Legend:
Format in all cases: functional
SK-MEL-28 [1] = assay: Cytotoxicity against human SK-MEL-28 cells assessed as growth inhibition after 48 hrs by sulforhodamine B assay; details: SK-MEL-28, 48 h
OVCAR-8 = assay: Cytotoxicity against human OVCAR8 cells assessed as growth inhibition after 48 hrs by sulforhodamine B assay; details: OVCAR-8, 48 h
ACHN [2] = assay: Cytotoxicity against human ACHN cells assessed as growth inhibition after 48 hrs by sulforhodamine B assay
TK-10 = assay: Cytotoxicity against human TK10 cells assessed as growth inhibition after 48 hrs by sulforhodamine B assay; details: TK-10, 48 h
MDA-MB-468 [3] = assay: Cytotoxicity against human MDA-MB-468 cells assessed as growth inhibition after 48 hrs by sulforhodamine B assay; details: MDA-MB-468, 48 h
ACHN [4] = assay: Cytotoxicity against human ACHN cells assessed as cell growth at 0.01 uM after 48 hrs by sulforhodamine B assay relative to control; details: read-out: Activity
OVCAR-4 = assay: Cytotoxicity against human OVCAR4 cells assessed as cell growth at 0.01 uM after 48 hrs by sulforhodamine B assay relative to control; details: OVCAR-4, 48 h, read-out: Activity
OVCAR-3 = assay: Cytotoxicity against human OVCAR3 cells assessed as cell growth at 0.01 uM after 48 hrs by sulforhodamine B assay relative to control; details: OVCAR-3, 48 h, read-out: Activity
SK-MEL-28 [5] = assay: Cytotoxicity against human SK-MEL-28 cells assessed as cell growth at 0.01 uM after 48 hrs by sulforhodamine B assay relative to control; details: SK-MEL-28, 48 h, read-out: Activity
Malme-3M [6] = assay: Cytotoxicity against human MALME-3M cells assessed as cell growth at 0.01 uM after 48 hrs by sulforhodamine B assay relative to control; details: read-out: Activity
MDA-MB-468 [7] = assay: Cytotoxicity against human MDA-MB-468 cells assessed as cell growth at 0.01 uM after 48 hrs by sulforhodamine B assay relative to control; details: MDA-MB-468, 48 h, read-out: Activity
COLO 205 = assay: Cytotoxicity against human COLO205 cells assessed as cell growth at 0.1 uM after 48 hrs by sulforhodamine B assay relative to control; details: COLO 205, 48 h, read-out: Activity
SK-MEL-28 [8] = assay: Cytotoxicity against human SK-MEL-28 cells assessed as cell growth at 0.1 uM after 48 hrs by sulforhodamine B assay relative to control; details: SK-MEL-28, 48 h, read-out: Activity
RXF 393 = assay: Cytotoxicity against human RXF393 cells assessed as cell growth at 0.1 uM after 48 hrs by sulforhodamine B assay relative to control; details: RXF 393, 48 h, read-out: Activity
SR [9] = assay: Cytotoxicity against human SR cells assessed as cell growth at 1 uM after 48 hrs by sulforhodamine B assay relative to control; details: read-out: Activity
KM12 = assay: Cytotoxicity against human KM12 cells assessed as cell growth at 1 uM after 48 hrs by sulforhodamine B assay relative to control; details: KM12, 48 h, read-out: Activity
NCI/ADR-RES = assay: Cytotoxicity against human NCI/ADR-RES cells assessed as cell growth at 1 uM after 48 hrs by sulforhodamine B assay relative to control; details: read-out: Activity
MDA-MB-468 [10] = assay: Cytotoxicity against human MDA-MB-468 cells assessed as cell growth at 1 uM after 48 hrs by sulforhodamine B assay relative to control; details: MDA-MB-468, 48 h, read-out: Activity
A549 = assay: Cytotoxicity against human A549/ATCC cells assessed as cell growth at 10 uM after 48 hrs by sulforhodamine B assay relative to control; details: A549, 48 h, read-out: Activity
HCT-116 = assay: Cytotoxicity against human HCT116 cells assessed as cell growth at 10 uM after 48 hrs by sulforhodamine B assay relative to control; details: HCT-116, 48 h, read-out: Activity
SF-539 = assay: Cytotoxicity against human SF539 cells assessed as cell growth at 10 uM after 48 hrs by sulforhodamine B assay relative to control; details: SF-539, 48 h, read-out: Activity
BT-549 = assay: Cytotoxicity against human BT549 cells assessed as cell growth at 10 uM after 48 hrs by sulforhodamine B assay relative to control; details: BT-549, 48 h, read-out: Activity
HL-60(TB) = assay: Cytotoxicity against human HL-60(TB) cells assessed as cell growth at 100 uM after 48 hrs by sulforhodamine B assay relative to control; details: HL-60, 48 h, read-out: Activity
MOLT-4 = assay: Cytotoxicity against human MOLT4 cells assessed as cell growth at 100 uM after 48 hrs by sulforhodamine B assay relative to control; details: MOLT-4, 48 h, read-out: Activity
RPMI-8226 = assay: Cytotoxicity against human RPMI8226 cells assessed as cell growth at 100 uM after 48 hrs by sulforhodamine B assay relative to control; details: RPMI-8226, 48 h, read-out: Activity
SR [11] = assay: Cytotoxicity against human SR cells assessed as cell growth at 100 uM after 48 hrs by sulforhodamine B assay relative to control; details: read-out: Activity
NCI-H322M = assay: Cytotoxicity against human NCI-H322M cells assessed as cell growth at 100 uM after 48 hrs by sulforhodamine B assay relative to control; details: read-out: Activity
NCI-H460 = assay: Cytotoxicity against human NCI-H460 cells assessed as cell growth at 100 uM after 48 hrs by sulforhodamine B assay relative to control; details: NCI-H460, 48 h, read-out: Activity
SW-620 = assay: Cytotoxicity against human SW620 cells assessed as cell growth at 100 uM after 48 hrs by sulforhodamine B assay relative to control; details: SW-620, 48 h, read-out: Activity
U-251 = assay: Cytotoxicity against human U251 cells assessed as cell growth at 100 uM after 48 hrs by sulforhodamine B assay relative to control; details: U-251, 48 h, read-out: Activity
Malme-3M [12] = assay: Cytotoxicity against human MALME-3M cells assessed as cell growth at 100 uM after 48 hrs by sulforhodamine B assay relative to control; details: read-out: Activity
SK-MEL-28 [13] = assay: Cytotoxicity against human SK-MEL-28 cells assessed as cell growth at 100 uM after 48 hrs by sulforhodamine B assay relative to control; details: SK-MEL-28, 48 h, read-out: Activity
OVCAR-5 = assay: Cytotoxicity against human OVCAR5 cells assessed as cell growth at 100 uM after 48 hrs by sulforhodamine B assay relative to control; details: OVCAR-5, 48 h, read-out: Activity
ACHN [14] = assay: Cytotoxicity against human ACHN cells assessed as cell growth at 100 uM after 48 hrs by sulforhodamine B assay relative to control; details: read-out: Activity
SN12C = assay: Cytotoxicity against human SN12C cells assessed as cell growth at 100 uM after 48 hrs by sulforhodamine B assay relative to control; details: read-out: Activity
NCI-H226 = assay: Cytotoxicity against human NCI-H226 cells assessed as cell growth at 100 uM after 48 hrs by sulforhodamine B assay relative to control; details: NCI-H226, 48 h, read-out: Activity

## COc1cc(-c2cc(/C=C/C(=O)c3ccc(Cl)c(Cl)c3)[nH]n2)cc(OC)c1OC
SK-MEL-28 [1]
  LC50: > 100 µM
  TGI: 66 µM
OVCAR-8
  LC50: > 100 µM
  TGI: 34 µM
ACHN [2]
  LC50: > 100 µM
  TGI: > 100 µM
TK-10
  LC50: > 100 µM
  TGI: 43.2 µM
MDA-MB-468 [3]
  GI50: 1.98 µM
  LC50: > 100 µM
  TGI: 7.22 µM
ACHN [4]
  growth at 0.01 µM: 107%
OVCAR-4
  growth at 0.01 µM: 92%
OVCAR-3
  growth at 0.01 µM: 103%
SK-MEL-28 [5]
  growth at 0.01 µM: 108%
Malme-3M [6]
  growth at 0.01 µM: 94%
MDA-MB-468 [7]
  growth at 0.01 µM: 94%
COLO 205
  growth at 0.1 µM: 88%
SK-MEL-28 [8]
  growth at 0.1 µM: 114%
RXF 393
  growth at 0.1 µM: 96%
SR [9]
  growth at 1 µM: 23%
KM12
  growth at 1 µM: 85%
NCI/ADR-RES
  growth at 1 µM: 92%
MDA-MB-468 [10]
  growth at 1 µM: 76%
A549
  growth at 10 µM: 68%
HCT-116
  growth at 10 µM: 16%
SF-539
  growth at 10 µM: 28%
BT-549
  growth at 10 µM: 47%
HL-60(TB)
  growth at 100 µM: -33%
MOLT-4
  growth at 100 µM: -15%
RPMI-8226
  growth at 100 µM: -25%
SR [11]
  growth at 100 µM: -51%
NCI-H322M
  growth at 100 µM: 5%
NCI-H460
  growth at 100 µM: -24%
SW-620
  growth at 100 µM: -5%
U-251
  growth at 100 µM: -5%
Malme-3M [12]
  growth at 100 µM: 24%
SK-MEL-28 [13]
  growth at 100 µM: -16%
OVCAR-5
  growth at 100 µM: 16%
ACHN [14]
  growth at 100 µM: 16%
SN12C
  growth at 100 µM: 11%

## COc1ccc(-c2cc(/C=C/C(=O)c3ccc4c(c3)OCO4)[nH]n2)cc1OC
SK-MEL-28 [1]
  GI50: 1.82 µM
OVCAR-8
  GI50: 2.63 µM
ACHN [2]
  GI50: 1.59 µM
TK-10
  GI50: 1.5 µM
MDA-MB-468 [3]
  GI50: 1.09 µM

## COc1ccc(C(=O)/C=C/c2cc(-c3ccc(OC)c(OC)c3)n[nH]2)cc1OC
SK-MEL-28 [1]
  GI50: 1.82 µM
  TGI: 4.82 µM
OVCAR-8
  GI50: 2.63 µM
  TGI: 22.5 µM
ACHN [2]
  GI50: 1.59 µM
  TGI: 3.83 µM
TK-10
  GI50: 4.96 µM
  TGI: 47.7 µM
MDA-MB-468 [3]
  GI50: 1.09 µM
  TGI: 2.55 µM
ACHN [4]
  growth at 0.01 µM: 93%
OVCAR-4
  growth at 0.01 µM: 106%
OVCAR-3
  growth at 0.01 µM: 107%
SK-MEL-28 [5]
  growth at 0.01 µM: 89%
Malme-3M [6]
  growth at 0.01 µM: 99%
MDA-MB-468 [7]
  growth at 0.01 µM: 87%
COLO 205
  growth at 0.1 µM: 98%
SK-MEL-28 [8]
  growth at 0.1 µM: 95%
RXF 393
  growth at 0.1 µM: 84%
SR [9]
  growth at 1 µM: 5%
KM12
  growth at 1 µM: 37%
NCI/ADR-RES
  growth at 1 µM: 89%
MDA-MB-468 [10]
  growth at 1 µM: 55%
HCT-116
  growth at 10 µM: -69%
SF-539
  growth at 10 µM: -51%
BT-549
  growth at 10 µM: -87%
HL-60(TB)
  growth at 100 µM: 1%
RPMI-8226
  growth at 100 µM: -38%
SR [11]
  growth at 100 µM: -17%
NCI-H226
  growth at 100 µM: -5%
NCI-H322M
  growth at 100 µM: -48%
NCI-H460
  growth at 100 µM: -42%
SW-620
  growth at 100 µM: -27%
U-251
  growth at 100 µM: -53%
Malme-3M [12]
  growth at 100 µM: -11%
SK-MEL-28 [13]
  growth at 100 µM: -32%
OVCAR-5
  growth at 100 µM: -41%
ACHN [14]
  growth at 100 µM: -60%
SN12C
  growth at 100 µM: -37%
